Reference: patent US10590129B2 (Incozen Therapeutics Pvt. Ltd., priority 2010, dated 2020)

Assays:
MKN-45 cells = assay: Inhibition of MKN-45 proliferation (MTT); type: cell-based, human; conditions: for inhibition at 0.1 µM / inhibition at 1 µM: Homo sapiens, MKN-45, MKN-45 proliferation; for inhibition at 0.1 µM / Inhibition (% Inhibition of MKN-45 proliferation): 0.1 μM
In short: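 Viability measured by MTT dye reduction on day 5 after compound addition on day 2 to MKN-45 gastric adenocarcinoma cells (high Met expression) seeded on day 1 in complete medium.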

| Structure (SMILES) | melting point | inhibition at 0.1 µM (MKN-45 cells) | inhibition at 1 µM (MKN-45 cells; 1 μM) | Inhibition (% Inhibition of MKN-45 proliferation) (MKN-45 cells; MKN-45 proliferation) | % inhibition @ 1 uM (MKN-45 cells; MKN-45 proliferation, 1 μM) | inhibition at 1 µM (MKN-45 cells; 1 μM, number printed instead of class) |
| --- | --- | --- | --- | --- | --- | --- |
| CC(C)(C)NC(=O)c1ccc(-c2ccc3nnn(Cc4ccc5ncccc5c4)c3n2)cc1F [Ex 60, N-tert-Butyl-2-fluoro-4-(3-(quinolin-6-ylmethyl)-3H-[1,2,3]triazolo[4,5-b]pyridin-5-yl) benzamide] | 210 to 212 °C | < 25% | < 25% |  |  |  |
| C=CCNC(=O)c1ccc(-c2ccc3nnn(Cc4ccc5ncccc5c4)c3n2)cc1F [Ex 61, N-Allyl-2-fluoro-4-(3-(quinolin-6-ylmethyl)-3H-[1,2,3]triazolo[4,5-b]pyridin-5-yl) benzamide] | 162 to 164 °C | 75 to 100% | 75 to 100% |  |  |  |
| CONC(=O)c1ccc(-c2ccc3nnn(Cc4ccc5ncccc5c4)c3n2)cc1F [Ex 62, 2-Fluoro-N-methoxy-4-(3-(quinolin-6-ylmethyl)-3H-[1,2,3]triazolo[4,5-b]pyridin-5-yl)benzamide] | 197 to 199 °C |  |  | A (A = ≥75 to 100%) | A (A = ≥75 to 100%) |  |
| CC(=O)Nc1ccc(-c2ccc3nnn(Cc4ccc5ncccc5c4)c3n2)cc1 [Ex 63, N-(4-(3-(quinolin-6-ylmethyl)-3H-[1,2,3]triazolo[4,5-b]pyridin-5-yl)phenyl)acetamide] | 220 to 223 °C | < 25% | 50 to 75% |  |  |  |
| Nc1ccc(-c2ccc3nnn(Cc4ccc5ncccc5c4)c3n2)cc1 [Ex 64, 4-(3-(quinolin-6-ylmethyl)-3H-[1,2,3]triazolo[4,5-b]pyridin-5-yl)aniline] | 190 to 193 °C |  | 25 to 50% |  |  |  |
| COc1ccc(-c2ccc3nnn(Cc4ccc5ncccc5c4)c3n2)cc1OC [Ex 65, 6-((5-(3,4-Dimethoxyphenyl)-3H-[1,2,3]triazolo[4,5-b]pyridin-3-yl)methyl)quinoline] | 149 to 152 °C | < 25% | < 25% |  |  |  |
| COc1ccc(-c2ccc3nnn(Cc4ccc5ncccc5c4)c3n2)cc1F [Ex 66, 6-((5-(3-Fluoro-4-methoxyphenyl)-3H-[1,2,3]triazolo[4,5-b]pyridin-3-yl)methyl)quinoline] | 187 to 190 °C | < 25% | 25 to 50% |  |  |  |
| Fc1ccc(-c2ccc3nnn(Cc4ccc5ncccc5c4)c3n2)cc1 [Ex 67, 6-((5-(4-Fluorophenyl)-3H-[1,2,3]triazolo[4,5-b]pyridin-3-yl)methyl)quinoline] | 153 to 156 °C | < 25% |  |  |  | 13.8% |
| Fc1ccccc1-c1ccc2nnn(Cc3ccc4ncccc4c3)c2n1 [Ex 68, 6-((5-(2-Fluorophenyl)-3H-[1,2,3]triazolo[4,5-b]pyridin-3-yl)methyl)quinoline] | 164 to 166 °C | < 25% | < 25% |  |  |  |
| CC(=O)Nc1cccc(-c2ccc3nnn(Cc4ccc5ncccc5c4)c3n2)c1 [Ex 69, N-(3-(3-(quinolin-6-ylmethyl)-3H-[1,2,3]triazolo[4,5-b]pyridin-5-yl)phenyl)acetamide] | 198 to 201 °C | < 25% | < 25% |  |  |  |
| FC(F)(F)COc1cccc(-c2ccc3nnn(Cc4ccc5ncccc5c4)c3n2)c1 [Ex 70, 6-((5-(3-(2,2,2-Trifluoroethoxy)phenyl)-3H-[1,2,3]triazolo[4,5-b]pyridin-3-yl)methyl)quinoline] | 151 to 154 °C | < 25% | < 25% |  |  |  |
| Nc1cccc(-c2ccc3nnn(Cc4ccc5ncccc5c4)c3n2)c1 [Ex 71, 3-(3-(quinolin-6-ylmethyl)-3H-[1,2,3]triazolo[4,5-b]pyridin-5-yl)aniline] | 187 to 189 °C | < 25% | 25 to 50% |  |  |  |
| CN(C)CCCNC(=O)c1ccc(-c2ccc3nnn(Cc4ccc5ncccc5c4)c3n2)cc1F [Ex 72, N-(3-(dimethylamino)propyl)-2-fluoro-4-(3-(quinolin-6-ylmethyl)-3H-[1,2,3]triazolo[4,5-b]pyridin-5-yl)benzamide] | 148 to 150 °C |  |  | D (D = <25%) |  |  |
| CC(C)Oc1ccc(-c2ccc3nnn(Cc4ccc5ncccc5c4)c3n2)cc1F [Ex 75, 6-((5-(3-Fluoro-4-isopropoxyphenyl)-3H-[1,2,3]triazolo[4,5-b]pyridin-3-yl)methyl)quinoline] | 128 to 130 °C | < 25% | < 25% |  |  |  |
| CN(C)C(=O)CCNC(=O)c1ccc(-c2ccc3nnn(Cc4ccc5ncccc5c4)c3n2)cc1F [Ex 76, N-(3-(dimethylamino)-3-oxopropyl)-2-fluoro-4-(3-(quinolin-6-ylmethyl)-3H-[1,2,3]triazolo[4,5-b]pyridin-5-yl)benzamide] | 163 to 165 °C | 75 to 100% | 50 to 75% |  |  |  |
| CN(C)C(=O)CNC(=O)c1ccc(-c2ccc3nnn(Cc4ccc5ncccc5c4)c3n2)cc1F [Ex 77, N-(2-(dimethylamino)-2-oxoethyl)-2-fluoro-4-(3-(quinolin-6-ylmethyl)-3H-[1,2,3]triazolo[4,5-b]pyridin-5-yl)benzamide] | 177 to 179 °C | 50 to 75% | 50 to 75% |  |  |  |
| O=C(NCC(=O)N1CCCC1)c1ccc(-c2ccc3nnn(Cc4ccc5ncccc5c4)c3n2)cc1F [Ex 78, 2-Fluoro-N-(2-oxo-2-(pyrrolidin-1-yl)ethyl)-4-(3-(quinolin-6-ylmethyl)-3H-[1,2,3]triazolo[4,5-b]pyridin-5-yl)benzamide] | 175 to 177 °C | 50 to 75% | 50 to 75% |  |  |  |
| Fc1cc(-c2ccc3nnn(Cc4ccc5ncccc5c4)c3n2)ccc1OCC1CC1 [Ex 79, 6-((5-(4-(Cyclopropylmethoxy)-3-fluorophenyl)-3H-[1,2,3]triazolo[4,5-b]pyridin-3-yl)methyl)quinoline] | 160 to 162 °C | < 25% | 50 to 75% |  |  |  |
| CC(C)COc1ccc(-c2ccc3nnn(Cc4ccc5ncccc5c4)c3n2)cc1F [Ex 80, 6-((5-(3-Fluoro-4-isobutoxyphenyl)-3H-[1,2,3]triazolo[4,5-b]pyridin-3-yl)methyl)quinoline] | 115 to 157 °C | < 25% | 25 to 50% |  |  |  |
| CN(C)CCCOc1ccc(-c2ccc3nnn(Cc4ccc5ncccc5c4)c3n2)cc1F [Ex 81, 3-(2-Fluoro-4-(3-(quinolin-6-ylmethyl)-3H-[1,2,3]triazolo[4,5-b]pyridin-5-yl)phenoxy)-N,N-dimethylpropan-1-amine] | 102 to 105 °C | 50 to 75% | 75 to 100% |  |  |  |
| Fc1cc(-c2ccc3nnn(Cc4ccc5ncccc5c4)c3n2)ccc1OC1CCOCC1 [Ex 85, 6-((5-(3-Fluoro-4-(tetrahydro-2H-pyran-4-yloxy)phenyl)-3H-[1,2,3]triazolo[4,5-b]pyridin-3-yl)methyl)quinoline] | 165 to 167 °C | < 25% | 75 to 100% |  |  |  |
| COCCOc1ccc(-c2ccc3nnn(Cc4ccc5ncccc5c4)c3n2)cc1F [Ex 86, 6-((5-(3-Fluoro-4-(2-methoxyethoxy)phenyl)-3H-[1,2,3]triazolo[4,5-b]pyridin-3-yl)methyl)quinoline] | 122 to 124 °C | < 25% | 75 to 100% |  |  |  |
